This note sets out measurements from ChEMBL document CHEMBL1140122 (J Med Chem, 2008).

SMILES strings stand for the structures. A value given as a limit tells only on which side of the number the result lay.

Data set [1] deals with Trypanosoma cruzi. Kind of data set: Antitrypanosomal activity against Trypanosoma cruzi Tulahuen C4 in african green monkey Vero cells after 120 hrs. The class given is functional, organism-based.
Data set [2] in a line: Selectivity index, IC50 for african green monkey Vero cells to IC50 for Trypanosoma cruzi Tulahuen C4. Format: functional.
In data set [3] the test system is Vero. The experiment in a line: Cytotoxicity against african green monkey Vero cells by MTT assay. The class given is cell-based. To be noted: Chlorocebus sabaeus. For orientation: Tetrazolium dyes change colour on reduction, which living cells bring about.
The nature of data set [4]: Cytotoxicity against BALB mouse 3T3 cells after 48 hrs. Format: cell-based. To be noted: BALB 3T3 cells.
In data set [5] the test system is NCI-H460. The experiment in a line: Cytotoxicity against human H460 cells after 48 hrs. To be noted: NCI-H460, 48 h. The class given is functional.
Data set [6] deals with DU-145. Kind of data set: Cytotoxicity against human DU145 cells after 48 hrs. The class given is functional. To be noted: DU-145, 48 h.
Data set [7] deals with MCF7. Kind of data set: Cytotoxicity against human MCF7 cells after 48 hrs. The conditions noted are these: MCF7, 48 h. Format: functional.
Data set [8] deals with M14. Kind of data set: Cytotoxicity against human M14 cells after 48 hrs. Format: functional. The conditions noted are these: M14, 48 h.
Data set [9] deals with HT-29. The experiment in a line: Cytotoxicity against human HT29 cells after 48 hrs. The class given is functional. The conditions noted are these: HT-29, 48 h.
The subject of data set [10] is PC-3. The experiment in a line: Cytotoxicity against human PC3 cells after 48 hrs. The class given is functional. The conditions noted are these: PC-3, 48 h.
The test system of data set [11] is K562. The experiment in a line: Cytotoxicity against human K562 cells after 48 hrs. To be noted: K562, 48 h. The class given is functional.

`C=CCOc1cc(OC)c(C(=O)/C=C/c2ccco2)c(OCC=C)c1`: half-maximal inhibition in data set [1] (IC50) required 12.2 µM. The “Ratio IC50” value in data set [2] was 15.6.

For `C=CCOc1cc(OC)c(C(=O)/C=C/c2ccccc2F)c(OCC=C)c1`, the IC50 (usually the concentration at which inhibition is half-maximal) in data set [1] is 6.2 µM; in data set [3] it was 16.3 µM. The “Ratio IC50” value in [2] came to 2.6.

As for `C=CCOc1cc(OC)c(C(=O)/C=C/c2ccc(OC)cc2)c(OCC=C)c1`, growth in data set [4] was halved (GI50 at 48 h) at 41 µM. Moreover, the GI50 (commonly the concentration giving 50% growth inhibition) in [5] came out at 20 µM; in data set [6] it was 21 µM; in [7], 19.5 µM; in [8], 27.6 µM; in [9], 28.4 µM; in data set [10], 18.1 µM. This molecule showed a GI50 in [11] of 16.6 µM. Further, the IC50 in data set [1] amounted to 21.4 µM; in data set [3], 99.9 µM. Moreover, the “Ratio IC50” value in [2] amounted to 4.7.

With `C=CCOc1cc(OC)c(C(=O)/C=C/c2ccc([N+](=O)[O-])cc2)c(OCC=C)c1`, the IC50 in [1] worked out at 4.1 µM; in data set [3] it was 12.6 µM. In data set [2], the “Ratio IC50” value is given as 3.1.

With `C=CCOc1cc(OC)c(C(=O)/C=C/c2ccc(F)cc2)c(OCC=C)c1`, the 50% inhibitory concentration (IC50) in data set [1] came to 14.3 µM; in [3], 13.6 µM. In addition, in data set [2], the “Ratio IC50” value came out at 0.9.

Consider `CC1CS(=O)(=O)CCN1/N=C/c1ccc([N+](=O)[O-])o1` (stereo unspecified) [NIFURTIMOX], for which the IC50 is 0.52 µM in data set [1] and 80.1 µM in data set [3]. In addition, the “Ratio IC50” value in data set [2] stood at 154.

As for `C=CCOc1cc(OC)c(C(=O)/C=C/c2ccc(OC)cc2OC)c(OCC=C)c1`, the IC50 was 13.1 µM in data set [1] and 92.6 µM in data set [3]. For the same molecule, the “Ratio IC50” value in [2] came to 7.1.

`COc1ccc(CCC(=O)c2c(O)cc(OC)cc2OC)cc1`: the 50% growth inhibitory concentration (GI50) at 48 h in data set [4] is over 197 µM. Further, the 50% growth inhibitory concentration (GI50) in data set [5], in [6], in data set [7], in [8], in data set [9] and in data set [10] was over 197 µM each time. In [11], the GI50 was over 197 µM. Besides, the IC50 in data set [1] was over 100 µM.

`C=CCOc1cc(OC)c(C(=O)/C=C/C=C/c2ccccc2)c(OCC=C)c1`: in data set [1], the IC50 was over 25 µM.

As to `COc1cc(O)cc(O)c1C(=O)/C=C/c1ccc2c(c1)OCO2`, in data set [4], the GI50 at 48 h came to 5.1 µM. Also, the GI50 in [5] worked out at 15.6 µM; in data set [6] it was 12.4 µM; in data set [7] it was 20.4 µM; in data set [8], 22.6 µM; in data set [9], 20.7 µM; in data set [10], 18.5 µM. The molecule also displayed a GI50 in data set [11] of 16.2 µM. In addition, the IC50 in data set [1] is 9.4 µM; in data set [3], 25.5 µM. Moreover, the “Ratio IC50” value in data set [2] is given as 2.7.

With `COc1ccc(CCC(=O)c2c(O)cc(O)cc2OC)cc1`, the GI50 at 48 h in [4] was over 206 µM. Also, the GI50 is 128 µM in data set [5]; over 206 µM in data set [6]; 65.5 µM in data set [7]; 109 µM in [8]; over 206 µM in data set [9]; 59.9 µM in data set [10]. In data set [11], this molecule displayed a GI50 of 22.8 µM. The half-inhibitory concentration (IC50) in data set [1] was over 25 µM.

As to `C=CCOc1cc(OC)c(C(=O)/C=C/c2ccc[nH]2)c(OCC=C)c1`, the IC50 in data set [1] is over 100 µM.

In turn, `COc1cc(O)c(C(=O)CCc2ccc3c(c2)OCO3)c(OC)c1` showed a GI50 at 48 h in [4] of 21.5 µM. Also, the GI50 in data set [5] was determined as 105 µM; in data set [6], 60.2 µM; in [7], 42.4 µM; in [8], 82 µM; in data set [9], 145 µM; in [10], 39.1 µM. This molecule came in with a GI50 in [11] of 28.2 µM. In addition, in data set [1], the IC50 was over 100 µM.

Molecule `C=CCOc1cc(OC)c(C(=O)/C=C/c2cccc(OC)c2)c(OCC=C)c1` gave an IC50 in [1] of 14.2 µM. Moreover, the “Ratio IC50” value in [2] turned out to be 9.9.

Consider `C=CCOc1cc(OC)c(C(=O)/C=C/c2ccccc2)c(OCC=C)c1`, for which the IC50 in data set [1] and in [3] was 17.1 µM each time. Besides, the “Ratio IC50” value in [2] amounted to 1.

On to `C=CCOc1cc(OC)c(C(=O)/C=C/c2ccc(O)cc2)c(OCC=C)c1`, for which the values for the IC50 in data set [1] and in [3] were 20.3 µM and 76.4 µM, respectively. Moreover, in data set [2], the “Ratio IC50” value worked out at 3.8.

Take `COc1ccc(/C=C/C(=O)c2c(O)cc(O)cc2OC)cc1`: growth in [4] was halved (GI50 at 48 h) at 6.7 µM. The GI50 in [5] amounted to 14 µM; in data set [6], 9 µM; in data set [7], 17.3 µM; in data set [8] it was 19.6 µM; in data set [9], 21.6 µM; in data set [10], 19.3 µM. Moreover, the GI50 in [11] was found to be 17 µM. For the same molecule, the IC50 in [1] is over 25 µM.

For `COc1ccc(/C=C/C(=O)c2c(O)cc(OC)cc2OC)cc1` [FLAVOKAWAIN A], the GI50 at 48 h in data set [4] turned out to be 17.2 µM. In addition, the GI50 is 24.1 µM in data set [5]; 30.8 µM in data set [6]; 17.5 µM in data set [7]; 22.5 µM in data set [8]; 45.3 µM in data set [9]; 15.2 µM in [10]. The molecule also came in with a GI50 in [11] of 20.5 µM. In addition, the concentration for half-maximal inhibition (IC50) in data set [1] was over 25 µM.

Regarding `COc1cc(O)c(C(=O)/C=C/c2ccc3c(c2)OCO3)c(OC)c1`, growth in [4] was halved (GI50 at 48 h) at 39 µM. In addition, the GI50 in [5] was over 190 µM; in data set [6], over 190 µM; in data set [7], 140 µM; in data set [8] it was over 190 µM; in [9], over 190 µM; in [10], 118 µM. Also, halving of growth in [11] (GI50) required 18.9 µM. Besides, the IC50 in data set [1] was over 25 µM.

As for `C=CCOc1cc(OC)c(C(=O)/C=C/c2ccc(Cl)cc2)c(OCC=C)c1`, the concentration for half-maximal inhibition (IC50) in data set [1] was 8.6 µM; in data set [3], 10.4 µM. For the same molecule, the “Ratio IC50” value in [2] came out at 1.2.

For the molecule `C=CCOc1cc(OC)c(C(=O)/C=C/c2cc(OC)c(OC)c(OC)c2)c(OCC=C)c1`, the 50% inhibitory concentration (IC50) in data set [1] was 3.4 µM; in [3], 40.9 µM. In data set [2], the “Ratio IC50” value came out at 12.

With `C=CCOc1cc(OC)c(C(=O)/C=C/c2cc(OCC=C)c(Br)c(OCC=C)c2)c(OCC=C)c1`, the IC50 in data set [1] stood at 6.9 µM; in data set [3] it was 96.3 µM. Moreover, the “Ratio IC50” value in [2] turned out to be 13.9.

On to `C=CCOc1cc(OC)c(C(=O)/C=C/c2ccncc2)c(OCC=C)c1`, for which the concentration for half-maximal inhibition (IC50) in [1] was 1.5 µM; in data set [3] it was 2.8 µM. The “Ratio IC50” value in [2] was 1.9.

With `C=CCOc1cc(OC)c(C(=O)/C=C/c2ccc3c(c2)OCO3)c(OCC=C)c1`, halving of growth in data set [4] (GI50 at 48 h) required 31.7 µM. For the same molecule, the GI50 came to 14.5 µM in [5]; 17.5 µM in [6]; 10.9 µM in data set [7]; 17.2 µM in data set [8]; 24.1 µM in data set [9]; 9.6 µM in [10]. In addition, the GI50 in data set [11] is 12.2 µM. The IC50 in data set [1] amounted to 13.6 µM; in [3], 73.5 µM. The “Ratio IC50” value in data set [2] is given as 5.4.

Regarding `C=CCOc1cc(OC)c(C(=O)/C=C/c2ccccn2)c(OCC=C)c1`, the IC50 in data set [1] is 1.9 µM; in data set [3], 2.8 µM. Further, in data set [2], the “Ratio IC50” value is given as 1.5.

With `C=CCOc1cc(OC)c(C(=O)/C=C/c2ccc(C(F)(F)F)cc2)c(OCC=C)c1`, the results for the 50% inhibitory concentration (IC50) in [1] and in data set [3] were 15.6 µM and 7.2 µM, respectively. Moreover, the “Ratio IC50” value in [2] came out at 0.5.

Molecule `O=c1[nH]cc(F)c(=O)[nH]1` [FLUOROURACIL] yielded a concentration for 50% growth inhibition (GI50) at 48 h in data set [4] of under 1.54 µM. The 50% growth inhibitory concentration (GI50) in [5] worked out at 4.1 µM; in data set [6], 15.4 µM; in data set [7] it was 6.5 µM; in [8], 22.4 µM; in data set [9], 8.9 µM; in data set [10], 14.6 µM. In data set [11], this molecule yielded a GI50 of 16.7 µM.

As for `C=CCOc1cc(OC)c(C(=O)/C=C/c2ccc(C)cc2)c(OCC=C)c1`, in data set [1], 17.2 µM corresponded to half-maximal inhibition (IC50). For the same molecule, the “Ratio IC50” value in [2] worked out at 12.3.

As to `C=CCOc1cc(OC)c(C(=O)/C=C/c2ccccc2Br)c(OCC=C)c1`, the IC50 in [1] and in data set [3] was 13.9 µM each time. Also, the “Ratio IC50” value in data set [2] is recorded as 1.

As for `C=CCOc1cc(OC)c(C(=O)/C=C/c2ccc(O)c(OC)c2)c(OCC=C)c1`, the IC50 in data set [1] was over 25 µM.
